# According to patent US12139458B2, “(2,5-dioxopyrrolidin-1-yl)(phenyl)-acetamide derivatives and their use in the treatment of neurological diseases” (UNIWERSYTET JAGIELLONSKI, priority 2019, dated 2024):
# Key:
# [1] = system: male white Swiss mice (CD-1); assay: Oxaliplatin-induced neuropathy, Cold Plate test; format: in vivo; conditions: OXPT-induced neuropathy, plate 2° C.
# Procedure: Oxaliplatin (OXPT) was dissolved in a 5% glucose solution, followed by intraperitoneal administration to mice. A single dose of 10 mg/kg was used. Tactile and thermal (sensation of low temperature) allodynia associated with oxaliplatin-induced neuropathy are characterized by two phases. The early phase is acute and develops soon after administration of the OXPT, while the symptoms of the later (chronic) phase (associated with neurons damage), develops after a few days. Behavioral tests in mice with OXPT-induced neuropathy were carried out 7 days after its administration, i.e. in the late phase of neuropathy.
# The effect of the test compound on thermal allodynia was evaluated in a Cold Plate test using specialized equipment—Cold/Hot Plate; Bioseb, France. The animals were placed individually on a metal plate cooled to 2° C. using the thermostated device. The observed nociceptive reactions of animals included licking and/or characteristic hind paw lift or bounce. The observation time was set at 60 s to eliminate the potential risk of tissue damage and minimize animal discomfort. Similar to the Von Frey test, the measurement was performed 3 times.
# Compound 6 was administered at doses of 10, 20 and 30 mg/kg.
# [2] = Metabolic stability in human liver microsomes; format: in vitro ADME
# Procedure: Metabolic stability. The metabolic stability of compound 6 was evaluated using human liver microsomes (HLMs). Internal clearance values CLint were calculated by monitoring changes in compound concentration in the presence of microsomes per unit of time, according to the procedure proposed by Obach R. S. (Obach, R. S. Drug Metab. Dispos. 1999, 27, 1350-1359).
# Metabolic stability tests—methodology. Metabolic stability studies for compound 6 were performed using HLMs (Promega, Madison, WI, USA). For this purpose, 10 μL of compound 6 at a concentration of 1000 μM was diluted with 132 μL with tris-HCl buffer (100 mM, pH 7.4), followed by the addition of 8 μL of appropriate microsomes. The reaction mixture was preincubated at 37° C. for 5 minutes, followed by the addition of 50 μL of NADPH Regeneration System, supplied by Promega (Madison, WI, USA). After mixing, the whole mixture was incubated at 37° C. for 120 minutes. To complete the reaction, 200 μL of cold methanol was added to the tubes and centrifuged. The supernatant was subjected to UPLC/MS analysis, including fragmentation analysis. Four mixtures of 6 with HLMs were prepared to determine the internal clearance CLint. Each of these reactions was completed at a different time point, after 5, 15, 30 and 45 min, by the addition of cold methanol containing 50 μM internal standard. Then, according to literature guidelines (Obach, R. S. Drug Metab. Dispos. 1999, 27, 1350-1359), based on the plot of the relationship between the height of the peak from 6 and the height of the internal standard, the regression equation was determined and the reaction rate constant k was calculated. Then the constant k was substituted to equation (1).
# The calculated t1/2 value was then substituted into equation (2): […]
# HepG2 cells [3] = assay: In vitro hepatotoxicity, MTS cell viability assay; format: cell-based; conditions: 100 μM, 72 h incubation, p<0.05
# Procedure: (§1) In vitro hepatotoxicity assessment. The studies were conducted using the hepatoma HepG2 liver cancer cell line, which is used to assess the hepatotoxicity of the substance in vitro. A classic MTS colorimetric assay from Promega (Madison, WI, USA) was used to investigate the effect of 6 on HepG2 cell viability and proliferation. The compound was tested at four concentrations in the range (0.1-100 μM). Doxorubicin at a concentration of 1 μM was used as a reference cytostatic. In addition, the reference mitochondrial toxin carbonyl cyanide m-chlorophenylhydrazone (CCCP) at a concentration of 10 μM was also used (FIG. 10). […] In addition, cell viability was reduced to just 84% of the control, indicating a trace toxic effect of this compound on HepG2 cell lines. Due to the particular exposure of liver cells to the potential toxic effects of xenobiotics, an additional test was carried out with the HepG2 line in the form of luminescent measurement of ATP levels in cells, after a short 3-hour exposure to compound 6, in concentrations in the range of 1-100 μM. […]
# In vitro hepatotoxicity assessment—methodology. […] Plates were again incubated for 2-3 hours, followed by absorbance measurement at 490 nm with an EnSpire PerkinElmer (Waltham, MA, USA) reader. Statistical significance was calculated by one-way ANOVA variance analysis and the Bonferroni method. […]
# HepG2 cells [4] = assay: ATP level, CellTiter-Glo Luminescent Cell Viability Assay; format: cell-based; conditions: 1-100 μM, 3 h exposure
# Procedure: as §1, with “lines.” for “lines. Due to the particular exposure of liver cells to the potential toxic effects of xenobiotics, an additional test was carried out with the HepG2 line in the form of luminescent measurement of ATP levels in cells, after a short 3-hour exposure to compound 6, in concentrations in the range of 1-100 μM.”
# CellTiter-Glo Luminescent Cell Viability Assay from Promega (Madison, WI, USA) was used to study ATP levels in HepG2 cells. Prior to testing, the cells were plated into white, 96-well transparent bottom culture plates from Corning (Tewksbury, MA, USA), adapted for luminescence measurement at a concentration of 1.5×10^4 cells per well. […] Luminescence measurement was carried out with an EnSpire PerkinElmer (Waltham, MA, USA) reader after adding CellTiter-Glo Luminescent Cell Viability Assay in an amount of 100 μl to the culture. Statistical significance was calculated by one-way ANOVA and Bonferroni analysis using GraphPad Prism 5. […]
structure (smiles),measurement,setting,value
"O=C(C(c1ccccc1)N1C(=O)CCC1=O)N1CCN(c2cccc(C(F)(F)F)c2)CC1 (racemic) [Compound 6, 1-(2-Oxo-1-phenyl-2-(4-(3-(trifluoromethyl)phenyl)piperazin-1-yl)ethyl)pyrrolidine-2,5-dione]",effect on thermal allodynia in the cold plate test,[1],significantly increased thermal allodynia sensitivity
same,metabolites found by UPLC after incubation with HLMs,"[2]; 120 min incubation, UPLC/MS",three metabolites M1-M3
same,CLint scaled at 50 µM,"[2]; human, human liver microsomes, pH 7.4, incubation with HLMs, read-out: internal clearance CLint",5.8 mL/min/kg
same,internal clearance CLint,[2]; incubation with HLMs,5.6 mL/min/kg
same,"HepG2 cell viability, % of the control",HepG2 cells [3],84%
same,effect on ATP levels in HepG2 cells,HepG2 cells [4],no statistically significant effect
